The source of these data is PubChem BioAssay (NCI).

Test systems include BT-549 breast; MDA-MB-231 breast; SF-295 CNS; T-47D breast; A498 renal; HS 578T breast; SR leukemia; SNB-75 CNS; DLD-1 colon; KM20L2 colon; M19-MEL melanoma; SNB-78 CNS; DMS 273 small cell lung.
Holding throughout (experiment): NCI tumour cell line growth inhibition, 48 h

Several values for one entry are separate records, joined by “and”; a condition that tells them apart may be missing. Identical values can stand only once.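 Dose response: 5 concentrations. Exposure: 48 h. Format: 96-well plates. Endpoint: linear interpolation; highest concentration if not reached. The concentration for 50% growth inhibition is given as GI50. Definition used: TGI = concentration required for complete inhibition of growth.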

For `CCc1ccc2c(c1)C(=O)c1c-2n(CCCN)c(=O)c2cc([N+](=O)[O-])ccc12`, the GI50 was 1.68 µM in the test on BT-549 breast, 1.53 µM in the test with MDA-MB-231 breast, 1.07 µM in the test on SF-295 CNS and 1.28 µM in the test with T-47D breast. The TGI with BT-549 breast was 3.29 µM; in the test on MDA-MB-231 breast, 2.98 µM; in the test with SF-295 CNS, 2.47 µM; in the test on T-47D breast, 2.91 µM.

`COc1cc([N+](=O)[O-])ccc1N1C(=O)C2c3[nH]c4ccccc4c3C3CCC(C(C)(C)C)CC3C2C1=O` (centres undefined): the TGI with A498 renal was above 100 µM; with BT-549 breast, above 100 µM; in the test on HS 578T breast, 43.4 µM; in the test on MDA-MB-231 breast, 75.5 µM; in the test with SR leukemia it was above 100 µM.

In the case of `Cc1ccc([N+](=O)[O-])cc1S(=O)(=O)Nc1ccc(C2=NOC(c3ccccc3O)C2)cc1` (centres undefined), the TGI is 32.6 µM in the test with A498 renal; 60.3 µM in the test on BT-549 breast; above 100 µM with HS 578T breast; above 100 µM in the test on MDA-MB-231 breast; above 100 µM in the test with SF-295 CNS; 55.2 µM in the test with SNB-75 CNS. The TGI in the test with SR leukemia was 13.4 µM; in the test on T-47D breast, above 100 µM.

`COc1cc([N+](=O)[O-])ccc1NC(=O)c1cccc([N+](=O)[O-])c1O`: the TGI is 51.7 µM in the test with A498 renal; above 100 µM with DLD-1 colon; above 100 µM with KM20L2 colon; above 100 µM with M19-MEL melanoma; 81.6 µM in the test on SF-295 CNS; 70.5 µM with SNB-75 CNS. In addition, the TGI in the test on SNB-78 CNS and with SR leukemia was above 100 µM throughout.

With `CNC(C)Cc1ccccc1OC` (centres undefined), the TGI in the test on A498 renal, with DLD-1 colon, in the test on DMS 273 small cell lung, with KM20L2 colon, with SF-295 CNS and with SNB-75 CNS was above 100 µM each time. The TGI in the test on SNB-78 CNS was above 100 µM.

In the case of `c1c2c(cc3c1OCO3)-c1cc3ccc4c(c3c[n+]1CC2)OCO4`, the TGI in the test with A498 renal was above 12.5 µM; in the test on BT-549 breast it was above 12.5 µM; in the test on HS 578T breast it was above 12.5 µM; with MDA-MB-231 breast it was above 6.86 µM; in the test on SF-295 CNS, 3.52 µM; in the test with SNB-75 CNS, above 8.5 µM. For the same compound, the TGI in the test on SR leukemia and in the test with T-47D breast was above 12.5 µM each time.

`CCO[C@]12CCC[C@H]1[C@@H]1C(=O)c3ccccc3C(=O)C1=C(C)O2`: the TGI in the test on A498 renal was above 100 µM; in the test on HS 578T breast, above 100 µM; in the test with MDA-MB-231 breast it was above 100 µM; with SF-295 CNS it was above 100 µM; with SNB-75 CNS it was above 100 µM; in the test on SR leukemia, 59.1 µM. The TGI with T-47D breast is above 100 µM.

Turning to `O=C1OC2(OC2c2ccc(Cl)cc2)c2ccccc21` (centres undefined), the TGI in the test on DLD-1 colon, in the test with DMS 273 small cell lung, in the test with KM20L2 colon, with M19-MEL melanoma, with SF-295 CNS and with SNB-75 CNS was above 100 µM throughout. The same compound registered a TGI in the test on SR leukemia above 100 µM.

As to `CN(C)CCCN1c2ccc([N+](=O)[O-])cc2CCc2cc([N+](=O)[O-])ccc21`, the TGI in the test with A498 renal was 22.5 µM; in the test with BT-549 breast, 29.2 µM; in the test on HS 578T breast, 34.4 µM and 35.6 µM; in the test with MDA-MB-231 breast, 30.3 µM and 22.6 µM; in the test with SF-295 CNS it was 29.4 µM and 29.8 µM; with SNB-75 CNS, 24.8 µM and 29.3 µM. The TGI with SR leukemia is > 100 µM and 31.4 µM; in the test on T-47D breast, 32.1 µM and 36.3 µM. For the same compound, in the test with SR leukemia, the GI50 is 30.4 µM and 13.1 µM.

`C[N+](C)(C)CCN[N+]1(C)CCCc2ccccc21` (centres undefined): the TGI in the test on A498 renal is 35.1 µM; in the test with BT-549 breast, above 100 µM; with HS 578T breast, above 100 µM; in the test with MDA-MB-231 breast, above 100 µM; with SF-295 CNS, above 100 µM; in the test on SNB-75 CNS it was above 100 µM. For the same compound, the TGI in the test on SR leukemia and with T-47D breast was above 100 µM each time.

`CC1(C=O)CCC23COC4(CCC5C6(C)CCC(OC7OCC(OC8OC(CO)C(O)C(OC9OC(CO)C(O)C(O)C9O)C8OC8OCC(O)C(O)C8O)C(O)C7OC7OC(CO)C(O)C(O)C7O)C(C)(C)C6CCC5(C)C4(C)CC2O)C3C1` (centres undefined): the TGI with A498 renal came to 1.94 µM; in the test with BT-549 breast, 3.06 µM; in the test on HS 578T breast, 2.99 µM; in the test on MDA-MB-231 breast it was 0.95 µM; with SF-295 CNS it was 2.23 µM; with SNB-75 CNS, 2.51 µM. Also, the TGI with SR leukemia was determined as 0.617 µM; in the test with T-47D breast, 3.36 µM.

In the case of `c1ccc([P+](c2ccccc2)(c2ccccc2)c2ccc(-c3ccc([P+](c4ccccc4)(c4ccccc4)c4ccccc4)cc3)cc2)cc1`, the TGI in the test on A498 renal was 10.3 µM; with BT-549 breast it was above 100 µM; in the test on HS 578T breast, above 100 µM; in the test on MDA-MB-231 breast, 63.5 µM; in the test with SF-295 CNS, 76.9 µM; in the test with T-47D breast it was above 100 µM.

Take `Cc1c2cc[n+](C)cc2c(C)c2c1oc1ccccc12`: the TGI with A498 renal is above 69 µM; in the test with BT-549 breast, 4.39 µM; in the test on DLD-1 colon, above 59.5 µM; with DMS 273 small cell lung it was 16.7 µM; with HS 578T breast, 4.8 µM; with KM20L2 colon, above 64.1 µM. The TGI was found to be 8.99 µM in the test with M19-MEL melanoma; 35.2 µM in the test on MDA-MB-231 breast; 12.2 µM in the test on SF-295 CNS; 5.49 µM with SNB-75 CNS; 29.6 µM in the test with SNB-78 CNS; 30.5 µM in the test on SR leukemia.

Consider `CCOP(=O)(OCC)C(Nc1cccc(F)c1)c1ccc(N(C)C)cc1` (centres undefined), for which the TGI in the test on A498 renal, with BT-549 breast, in the test with HS 578T breast, with MDA-MB-231 breast, in the test with SF-295 CNS and in the test with SNB-75 CNS was above 100 µM throughout. In addition, the TGI in the test with SR leukemia and with T-47D breast was above 100 µM in each case.

For the compound `CCOC(=O)Nc1cc2c(c(N)n1)N=C(c1ccc3ccccc3c1)CN2`, the TGI in the test with A498 renal was 35.2 µM; in the test with BT-549 breast it was above 57.8 µM; with HS 578T breast, 3.16 µM; with SR leukemia, above 100 µM; in the test on T-47D breast, above 100 µM.
